Drawing on PubChem BioAssay (NCI), this text covers TGI for 13 compounds.

Among the test systems are SF-268 CNS; EKVX NSCLC; COLO 205 colon; OVCAR-8 ovarian; HCC-2998 colon; HS 578T breast; TK-10 renal; UACC-257 melanoma; K-562 leukemia; MDA-MB-231 breast; 786-0 renal.
Assay in all cases: NCI tumour cell line growth inhibition, 48 h

The structures appear in SMILES notation.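 Dose response: 5 concentrations. Exposure: 48 h. Format: 96-well plates. Endpoint: linear interpolation; highest concentration if not reached. TGI: total growth inhibition.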

For the compound `CC(C(=O)NCCNC(=O)CCC(=O)N(C)O)C(=O)NCCNC(=O)CCC(=O)N(C)O`, the TGI with SF-268 CNS, in the assay with EKVX NSCLC, in the assay with COLO 205 colon, in the assay on OVCAR-8 ovarian, with HCC-2998 colon and with HS 578T breast was greater than 100 µM each time. Besides, the TGI with TK-10 renal, in the assay with UACC-257 melanoma, with K-562 leukemia and in the assay on MDA-MB-231 breast was greater than 100 µM in each case.

For the compound `COc1ccc(N2CN(C)CSC2=S)cc1`, the TGI with SF-268 CNS, with EKVX NSCLC, in the assay on COLO 205 colon, in the assay with OVCAR-8 ovarian, in the assay with HCC-2998 colon and with HS 578T breast was greater than 100 µM throughout. In addition, the TGI in the assay with TK-10 renal, with UACC-257 melanoma, in the assay with K-562 leukemia and in the assay with MDA-MB-231 breast was greater than 100 µM in each case.

For `CC(C)(C)c1cc(C(=O)C2Cc3ccccc3C(=O)O2)cc(C(C)(C)C)c1O` (stereo not given), the TGI in the assay on SF-268 CNS is 40.6 µM; in the assay with EKVX NSCLC it was 25.9 µM; in the assay with 786-0 renal, 24.8 µM; in the assay with COLO 205 colon, 33.1 µM; in the assay with OVCAR-8 ovarian it was 33.3 µM; in the assay with HS 578T breast, greater than 100 µM. Also, the TGI in the assay with TK-10 renal is 28.6 µM; in the assay on UACC-257 melanoma it was 23.9 µM; with K-562 leukemia, greater than 100 µM; in the assay on MDA-MB-231 breast, 31.7 µM.

For `COC(=O)[C@@H]1[C@H](O)CCC2=C(CC(=O)c3ccoc3)[C@H](C)CC[C@]21C`, the TGI with EKVX NSCLC, with 786-0 renal, in the assay with COLO 205 colon, in the assay with OVCAR-8 ovarian, in the assay with HCC-2998 colon and with HS 578T breast was greater than 50 µM throughout. Moreover, the TGI with TK-10 renal, with UACC-257 melanoma, with K-562 leukemia and in the assay on MDA-MB-231 breast was greater than 50 µM throughout.

Regarding `O=C(OCC1CCCN2CCCCC12)c1cccnc1` (stereo not given), the TGI with SF-268 CNS, in the assay on EKVX NSCLC, in the assay with 786-0 renal, in the assay with COLO 205 colon, in the assay with OVCAR-8 ovarian and with HCC-2998 colon was greater than 100 µM each time. Moreover, the TGI in the assay on HS 578T breast, with TK-10 renal, in the assay with UACC-257 melanoma, in the assay with K-562 leukemia and in the assay on MDA-MB-231 breast was greater than 100 µM in each case.

Consider `Nc1ncnc2c1ncn2C1OC(CO)C(O)C1NS(=O)(=O)c1ccccc1` (stereo not given), for which the TGI in the assay with SF-268 CNS, in the assay on EKVX NSCLC, in the assay on 786-0 renal, in the assay on COLO 205 colon, in the assay with OVCAR-8 ovarian and in the assay on HCC-2998 colon was greater than 100 µM in each case. Besides, the TGI in the assay with HS 578T breast, in the assay on TK-10 renal, in the assay on UACC-257 melanoma, with K-562 leukemia and with MDA-MB-231 breast was greater than 100 µM throughout.

`COc1ccc(C(=O)c2c(-c3ccccc3NC(=O)C(F)(F)F)[nH]c3ccccc23)cc1`: the TGI was found to be 28.7 µM in the assay on SF-268 CNS; 24.4 µM in the assay on EKVX NSCLC; 16.1 µM in the assay with COLO 205 colon; 23.5 µM with OVCAR-8 ovarian; 9.11 µM in the assay on HCC-2998 colon; 46.9 µM in the assay with HS 578T breast. Moreover, the TGI worked out at 24.9 µM in the assay on TK-10 renal, 29.9 µM with UACC-257 melanoma, 32.7 µM with K-562 leukemia and 21.4 µM in the assay with MDA-MB-231 breast.

In the case of `N/C(=N\S(=O)(=O)c1ccc(-c2ccccn2)s1)Nc1ccc(Cl)cc1`, the TGI with SF-268 CNS was determined as 36.6 µM; in the assay on EKVX NSCLC it was 26 µM; with 786-0 renal, 29.4 µM; in the assay with COLO 205 colon, 35.9 µM; in the assay on OVCAR-8 ovarian it was 37.6 µM; with HS 578T breast, 59.6 µM. Further, the TGI was determined as 32.1 µM in the assay on TK-10 renal, 21.1 µM in the assay with UACC-257 melanoma, 66.2 µM with K-562 leukemia and 27.9 µM in the assay on MDA-MB-231 breast.

`Oc1cc(O)c2c(c1)O[C@H](c1cc(O)c(O)c(O)c1)[C@@H](O)C2`: the TGI was 58.7 µM with SF-268 CNS; 94.9 µM in the assay on EKVX NSCLC; 32.8 µM in the assay on 786-0 renal; 35.8 µM in the assay on COLO 205 colon; 31.1 µM in the assay on OVCAR-8 ovarian; greater than 10 µM in the assay with HCC-2998 colon. In addition, the TGI with HS 578T breast was greater than 100 µM; in the assay with UACC-257 melanoma, greater than 100 µM; in the assay with K-562 leukemia, 38.2 µM; with MDA-MB-231 breast it was 34 µM.

Regarding `CC(C)NCC(O)c1ccc(O)c2ncccc12` (stereo not given), the TGI was greater than 100 µM in the assay on SF-268 CNS; greater than 100 µM with EKVX NSCLC; greater than 100 µM with 786-0 renal; 36.4 µM with COLO 205 colon; greater than 100 µM with OVCAR-8 ovarian; greater than 100 µM with HCC-2998 colon. Also, the TGI with HS 578T breast, with TK-10 renal, in the assay with UACC-257 melanoma, with K-562 leukemia and in the assay with MDA-MB-231 breast was greater than 100 µM in each case.

Turning to `Oc1cc(Cl)cc2cc(Cl)cnc12`, the TGI in the assay with SF-268 CNS is greater than 100 µM; in the assay with EKVX NSCLC, 10.6 µM; in the assay with 786-0 renal, greater than 100 µM; with COLO 205 colon, greater than 100 µM; in the assay on OVCAR-8 ovarian it was greater than 100 µM; in the assay on HCC-2998 colon, 65.9 µM. Moreover, the TGI in the assay with HS 578T breast is greater than 100 µM; in the assay on TK-10 renal it was 76.2 µM; in the assay with UACC-257 melanoma, greater than 100 µM; in the assay with K-562 leukemia, 10.6 µM; with MDA-MB-231 breast, 77.2 µM.

With `O=C(/C=C/c1ccc2c(c1)OCO2)NCCc1ccco1`, the TGI in the assay with SF-268 CNS, with EKVX NSCLC, in the assay with COLO 205 colon, with OVCAR-8 ovarian, in the assay on HCC-2998 colon and in the assay on HS 578T breast was greater than 100 µM each time. For the same compound, the TGI with TK-10 renal, with UACC-257 melanoma, with K-562 leukemia and in the assay with MDA-MB-231 breast was greater than 100 µM in each case.

On to `C=C1C(=O)[C@]23C[C@H]1C[C@@H](O)[C@H]2[C@]1(COC3=O)[C@@H](OC(C)=O)CC[C@@](C)(COC(C)=O)[C@H]1C=O`, for which the TGI was 43.5 µM in the assay on SF-268 CNS; greater than 50 µM with EKVX NSCLC; greater than 50 µM in the assay with 786-0 renal; 16.4 µM in the assay on COLO 205 colon; greater than 50 µM with OVCAR-8 ovarian; greater than 50 µM with HCC-2998 colon. The TGI in the assay with HS 578T breast was greater than 50 µM; in the assay with TK-10 renal it was greater than 50 µM; with UACC-257 melanoma, greater than 50 µM; with K-562 leukemia it was 14.1 µM; in the assay with MDA-MB-231 breast, greater than 50 µM.
